According to the NIST ThermoML archive (doi:10.1016/j.jct.2015.06.009):

How the values were obtained:
[1] = xn = mol fraction of the nth substance listed; settings: 101 kPa, Liquid; for speed of sound: Frequency=3 MHz, Sing-around technique in a fixed-path interferometer; for mass density: Vibrating tube method
[2] = refractive index (Na D-line) (dimensionless); settings: 298.15 K; 101.33 kPa; Liquid; Standard Abbe refractometry
[3] = 101 kPa, Liquid; for speed of sound: Frequency=3 MHz, Sing-around technique in a fixed-path interferometer; for mass density: Vibrating tube method

CCCCO [butan-1-ol] + COC(C)(C)C
[1], x2 = 0
Settings | mass density [kg/m3] | speed of sound [m/s]
298.15 K | 805.73 | 1240
308.15 K | 798.07 | 1206.6
318.15 K | 790.37 | 1173.4
328.15 K | 782.58 | 1140.4

Cc1ccccc1 [toluene]
Settings | refractive index
[2] | 1.49393

[3]
Settings | mass density [kg/m3] | speed of sound [m/s]
298.15 K | 862.18 | 1305.3
308.15 K | 852.87 | 1262.5
318.15 K | 843.58 | 1220.2
328.15 K | 834.29 | 1178.5

CCCCO [butan-1-ol] + Cc1ccccc1
[1]
Settings | mass density, 298.15 K [kg/m3] | mass density, 308.15 K [kg/m3] | mass density, 318.15 K [kg/m3] | mass density, 328.15 K [kg/m3] | speed of sound, 298.15 K [m/s] | speed of sound, 308.15 K [m/s] | speed of sound, 318.15 K [m/s] | speed of sound, 328.15 K [m/s]
x2 = 0.2008 | 818.72 | 810.48 | 802.18 | 793.77 | 1248 | 1212.2 | 1176.5 | 1141.2
x2 = 0.4064 | 830.53 | 821.82 | 813.05 | 804.18 | 1255.5 | 1217.6 | 1180.1 | 1143
x2 = 0.5993 | 840.92 | 831.87 | 822.79 | 813.62 | 1263.8 | 1224.6 | 1185.7 | 1147.5
x2 = 0.7995 | 851.36 | 842.08 | 832.78 | 823.42 | 1277.3 | 1237.1 | 1197.3 | 1158.2

CCCCO [butan-1-ol]
Settings | refractive index
[2] | 1.39733

[3]
Settings | mass density [kg/m3] | speed of sound [m/s]
298.15 K | 805.73 | 1240
308.15 K | 798.07 | 1206.6
318.15 K | 790.37 | 1173.4
328.15 K | 782.58 | 1140.4

COC(C)(C)C [2-methoxy-2-methylpropane]
Settings | refractive index
[2] | 1.36648

[3]
Settings | mass density [kg/m3] | speed of sound [m/s]
298.15 K | 735.21 | 1036.3
308.15 K | 724.64 | 990.46
318.15 K | 714 | 944.87
328.15 K | 703.29 | –
